Source: patent US12011499B2, “Peptides and compositions for use in cosmetics” (LIPOTRUE, S.L., priority 2020, dated 2024)

Tests used:
versican [1] = assay: Modulation of versican synthesis in HDFa cell culture (sandwich ELISA); format: cell-based, human; settings: 24 hours
Experimental: The effect of Ac-SEQ ID NO: 3-NH2 peptide (synthesized in accordance with examples 1-3 and 5) on versican production was evaluated in vitro using human dermal fibroblasts (hereinafter, HDFa).
Briefly, HDFa cells were seeded in 96-well plates at 1×10^4 cells/well in fibroblasts growth media and maintained for 24 hours at standard culture conditions (37° C., 95% humidity, 5% CO2). After the aforementioned incubation, medium was removed and new medium containing the non-cytotoxic concentrations of Ac-SEQ ID NO: 3-NH2 peptide of: 0.01 mg/ml, 0.05 mg/ml and 0.1 mg/ml was added and incubated for 24 hours. 0.1 μM retinoic acid was included as positive control for versican stimulation and untreated cells were included as basal control. Cell culture media and cell lysate were collected from all wells at the end of the experiment and stored at −80° C. Ex-novo synthesis of versican was measured by means of sandwich ELISA following manufacturer's instructions.

tropoelastin = assay: Modulation of tropoelastin synthesis in HDFa cell culture (sandwich ELISA); format: cell-based, human; settings: 24 hours
Experimental: The potential effect of Ac-SEQ ID NO: 3-NH2 peptide (synthesized in accordance with examples 1-3 and 5) on tropoelastin synthesis was evaluated in vitro using HDFa.
HDFa were put in culture at a density of 1×10^4 cells/well in 96-well plates and incubated for 24 hours with non-cytotoxic increasing concentrations of Ac-SEQ ID NO: 3-NH2 peptide (0.01 mg/ml, 0.05 mg/ml, 0.1 mg/ml and 0.5 mg/ml). Untreated cells were included as basal control. At the end of the monitored experimental time cell culture media and cell lysates were extracted from all wells and stored at −80° C. Ex-novo synthesis of tropoelastin was measured by means of sandwich ELISA following manufacturer's instructions.

fibrillin-1 [2] = assay: Modulation of fibrillin-1 synthesis in HDFa cell culture (sandwich ELISA); format: cell-based, human; settings: 48 hours
Experimental: Modulation of fibrilin-1 synthesis by Ac-SEQ ID NO: 3-NH2 peptide (synthesized in accordance with examples 1-3 and 5) was evaluated in vitro using HDFa.
HDFa were seeded in 96-well plates at a density of 1×10^4 cells/well and they were put in contact with three non-cytotoxic concentrations of Ac-SEQ ID NO: 3-N H2 peptide: 0.01 mg/ml, 0.05 mg/ml and 0.1 mg/ml for 48 hours. Untreated cells were included as basal control. At the end of the monitored experiment, cell culture media were extracted from all wells and stored at −80° C. Modulation on fibrillin-1 levels was analyzed by means of sandwhich ELISA following manufacturer's instructions.

hyaluronic acid = assay: Modulation of hyaluronic acid synthesis in HDFa cell culture (competitive ELISA); format: cell-based, human; settings: 48 hours
Experimental: Modulation of Hyaluronic acid production by Ac-SEQ ID NO: 3-NH2 peptide (synthesized in accordance with examples 1-3 and 5) on HDFa was evaluated in vitro.
Briefly, HDFa were seeded in 96-well plates at a density of 1×10^4 cells/well and, then, incubated with non-cytotoxic concentrations of Ac-SEQ ID NO: 3-NH2 peptide, this is 0.01 mg/ml, 0.05 mg/ml, 0.1 mg/ml and 0.5 mg/ml, for 48 hours. 0.1 μM retinoic acid was included as positive control and untreated cells were included as basal control. At the end of the experiment, cell culture media were extracted from all wells and stored at −80° C. Ex-novo synthesis of hyaluronic acid was measured by means of competitive ELISA following manufacturer's instructions.

[3] = test system: Metalloproteinase-1 (MMP1); assay: Gene expression modulation in HDFa (RTqPCR), MMP1; format: cell-based, human; settings: 0.1 mg/ml, 6 hours
Experimental: (§1) Changes in gene expression levels are represented as a positive or negative fold-change with regard to the basal control (untreated cells). Bars from top to bottom in the y axis refer to: Metalloproteinase-1 (MMP1), Metalloproteinase-3 (MMP3), Fibronectin 1 (FN1), Fibrillin-1 (FBN1) and Versican (VCAN) genes, and x axis refers to fold change vs basal control.
(§2) Modulation of gene expression by Ac-SEQ ID NO: 3-NH2 peptide (synthesized in accordance with examples 1-3 and 5) on HDFa was evaluated in vitro.
(§3) Briefly, HDFa cells were seeded in duplicate in 6-well plates at a density of 4×10^5 cells/well and they were maintained at standard culture conditions (37° C., 95% humidity, 5% CO2) for 24 hours. Then, cells were treated with Ac-SEQ ID NO: 3-NH2 peptide at the non-cytotoxic concentration of 0.05 and 0.1 mg/ml for additional 6 hours. Untreated cells were used as basal control. […] RNA was then quantified by nanodrop, adjusted in concentration and processed for retrotranscription to cDNA using a commercially available kit (High-Capacity cDNA Reverse Transcription kit—Thermofisher Scientific, USA). Resulting cDNA was used to perform a RTqPCR (Real Time Quantitative Polymerase Chain Reaction) using taqman technology and a panel of probes designed to target specific genes related to extracellular matrix components and structure.

[4] = test system: Metalloproteinase-3 (MMP3); assay: Gene expression modulation in HDFa (RTqPCR), MMP3; format: cell-based, human; settings: 0.1 mg/ml, 6 hours
Experimental: as §1, §2, §3

Fibronectin 1 (FN1) = assay: Gene expression modulation in HDFa (RTqPCR), FN1; format: cell-based, human; settings: 0.1 mg/ml, 6 hours
Experimental: as §1, §2, §3

Fibrillin-1 (FBN1) = assay: Gene expression modulation in HDFa (RTqPCR), FBN1; format: cell-based, human; settings: 0.05 mg/ml, 6 hours
Experimental: as §1, §2, §3

Versican (VCAN) = assay: Gene expression modulation in HDFa (RTqPCR), VCAN; format: cell-based, human; settings: 0.05 mg/ml, 6 hours
Experimental: as §1, §2, §3

versican [5] = assay: Modulation of versican synthesis on human skin explants (immunostaining); settings: 0.005 mg/ml in cosmetic formulation, topical on days 0, 2, 4 and 7, explants collected day 9
Experimental: The effect of Ac-SEQ ID NO: 3-NH2 peptide (synthesized in accordance with examples 1-3 and 5) on versican production was evaluated on human skin explants from a donor.
Briefly, skin explants were obtained from a volunteer donor undergoing a plastic surgery procedure. Skin excess was donated for the present study. Skin explants were treated with a cosmetic formulation containing 1% (m/v) from a stock at 0.05% (m/v) of Ac-SEQ ID NO: 3-NH2 (effective final concentration of Ac-SEQ ID NO: 3-NH2, 0.005 mg/ml). On days 0, 2, 4 and 7, the tested product was topically applied on the basis of 2 μl per cm^2 of skin explant and spread using a small spatula.
On day 9, 3 explants from each condition were collected and fixed in a buffered formalin solution. After fixation for 24 hours in buffered formalin, samples were dehydrated and impregnated and embedded in paraffin. 5-μm-thick sections were made using a Leica RM 2125 Minot-type microtome, and the sections were mounted on Superfrost® histological glass slides. The microscopical observations were performed using a Leica DMLB or Olympus BX43 microscope. Pictures were digitized with a numeric DP72 Olympus camera with CellD storing software.
The immunostaining was performed using an automated slide-processing system (Dako, AutostainerPlus). The staining was assessed by microscopical observation and image analysis.

fibrillin-1 [6] = assay: Modulation of fibrillin-1 synthesis on human skin explants (immunostaining); settings: 0.005 mg/ml in cosmetic formulation, topical on days 0, 2, 4 and 7, explants collected day 9
Experimental: The effect of Ac-SEQ ID NO: 3-NH2 peptide (synthesized in accordance with examples 1-3 and 5) on fibrillin-1 production was evaluated on human skin explants from a donor.
Briefly, skin explants were treated with a cosmetic formulation containing 1% (m/v) from a stock at 0.05% (m/v) of Ac-SEQ ID NO: 3-N H2 (effective final concentration of Ac-SEQ ID NO: 3-N H2, 0.005 mg/ml). On days 0, 2, 4 and 7, the tested product was topically applied on the basis of 2 μl per cm^2 of skin explant and spread using a small spatula.
On day 9, 3 explants from each condition were collected and frozen at −80° C. The frozen samples were cut into 7-μm-thick sections using a Leica CM 3050 cryostat. Sections were then mounted on Superfrost® plus silanized glass slides. The microscopical observations were performed using a Leica DMLB or Olympus BX43 microscope. Pictures were digitized with a numeric DP72 Olympus camera with CellD storing software.
The nuclei were counterstained using propidium iodide. The immunostaining was performed using an automated slide-processing system (Dako, AutostainerPlus). The staining was assessed by microscopical observation and image analysis.

facial skin firmness = assay: Clinical evaluation of facial skin firmness on female volunteers (Dynaskin); format: in vivo, human; settings: 0.015 mg/ml in cosmetic formulation, two times per day, after 56 days, whole treated group
Experimental: The effect of Ac-SEQ ID NO: 3-NH2 peptide (synthesized in accordance with examples 1-3 and 5) on facial skin firmness was evaluated on 22 Caucasian female volunteers.
Briefly, volunteers applied a cosmetic formulation with 3% (m/v) from a stock at 0.05% (m/v) of Ac-SEQ ID NO: 3-NH2 (effective final concentration of Ac-SEQ ID NO: 3-NH2, 0.015 mg/ml) or without (placebo). The application regime was of two times per day during 56 days, on early morning and before bedtime. Cosmetic formulations were applied on either half of clean face in order to compare the effect of placebo and the active on the same volunteer.
On days 0, 7, 14 and 56, a Dynaskin device was used on each volunteer in order to measure the firmness quality of the skin according to three parameters: volume (mm^3), area (mm^2) and depth (mm). Dynaskin uses an air beam projection onto the cheek area causing a deformation of the skin. This deformation magnitude is measured by means of a specific software collecting data of the above three parameters for each volunteer and on each hemiface.

HDFa = assay: Cytotoxicity of tested concentrations on HDFa; format: cell-based, human; settings: 0.01, 0.05, 0.1 and 0.5 mg/ml

## Ac-ALHKVK-NH2 [Ac-SEQ ID NO: 3-NH2, Ac-Ala-Leu-His-Lys-Val-Lys-NH2]
Versican [1]; 0.01 mg/ml
  increase in versican synthesis compared to basal control: 24%
Versican [1]; 0.05 mg/ml
  increase in versican synthesis compared to basal control: 35%
Versican [1]; 0.10 mg/ml
  increase in versican synthesis compared to basal control: 62%
tropoelastin; 0.01 mg/ml
  increase in tropoelastin synthesis compared to basal control: 3%
tropoelastin; 0.05 mg/ml
  increase in tropoelastin synthesis compared to basal control: 11%
tropoelastin; 0.10 mg/ml
  increase in tropoelastin synthesis compared to basal control: 20%
tropoelastin; 0.50 mg/ml
  increase in tropoelastin synthesis compared to basal control: 31%
fibrillin-1 [2]; 0.01 mg/ml
  increase in fibrillin-1 synthesis compared to basal control: 18%
fibrillin-1 [2]; 0.05 mg/ml
  increase in fibrillin-1 synthesis compared to basal control: 30%
fibrillin-1 [2]; 0.10 mg/ml
  increase in fibrillin-1 synthesis compared to basal control: 41%
Hyaluronic acid; 0.01 mg/ml
  increase in hyaluronic acid production compared to basal control: 3%
Hyaluronic acid; 0.05 mg/ml
  increase in hyaluronic acid production compared to basal control: 8%
Hyaluronic acid; 0.1 mg/ml
  increase in hyaluronic acid production compared to basal control: 10%
Hyaluronic acid; 0.5 mg/ml
  increase in hyaluronic acid production compared to basal control: 18%
[3]
  MMP1 gene expression, fold change vs basal control: −1.33
[4]
  MMP3 gene expression, fold change vs basal control: −1.20
Fibronectin 1 (FN1)
  Fibronectin 1 gene expression, fold change vs basal control: 1.41
Fibrillin-1 (FBN1)
  Fibrillin 1 gene expression, fold change vs basal control: 1.55
Versican (VCAN)
  Versican gene expression, fold change vs basal control: 1.22
Versican [5]
  increase in skin surface occupied by versican protein compared to basal control: 29%
fibrillin-1 [6]
  increase in skin surface occupied by fibrillin-1 protein compared to basal control: 24%
Facial skin firmness
  decrease in area of cheek deformation versus initial time: 7%
  decrease in depth of cheek deformation versus initial time: 14.5%
  decrease in volume of cheek deformation versus initial time: 20%
HDFa
  cytotoxicity on HDFa: non-cytotoxic
